In US12479840B2, “HMG-CoA reductase degradation inducing compound” (Uppthera, priority 2020, dated 2025):

molecular target: T1, HMG-CoA reductase (Homo sapiens, UniProt P04035); test: HMG-CoA reductase (HMGCR) degradation in HepG2 cells by western blotting; type: cell-based; details: treated for 18 hours, ratio of HMG-CoA reductase to GAPDH, read-out: DC50
T1 construct: endogenous in cells; host or cells: HepG2 (Korea Cell Line Bank)
T1 sequence (P04035 1-888): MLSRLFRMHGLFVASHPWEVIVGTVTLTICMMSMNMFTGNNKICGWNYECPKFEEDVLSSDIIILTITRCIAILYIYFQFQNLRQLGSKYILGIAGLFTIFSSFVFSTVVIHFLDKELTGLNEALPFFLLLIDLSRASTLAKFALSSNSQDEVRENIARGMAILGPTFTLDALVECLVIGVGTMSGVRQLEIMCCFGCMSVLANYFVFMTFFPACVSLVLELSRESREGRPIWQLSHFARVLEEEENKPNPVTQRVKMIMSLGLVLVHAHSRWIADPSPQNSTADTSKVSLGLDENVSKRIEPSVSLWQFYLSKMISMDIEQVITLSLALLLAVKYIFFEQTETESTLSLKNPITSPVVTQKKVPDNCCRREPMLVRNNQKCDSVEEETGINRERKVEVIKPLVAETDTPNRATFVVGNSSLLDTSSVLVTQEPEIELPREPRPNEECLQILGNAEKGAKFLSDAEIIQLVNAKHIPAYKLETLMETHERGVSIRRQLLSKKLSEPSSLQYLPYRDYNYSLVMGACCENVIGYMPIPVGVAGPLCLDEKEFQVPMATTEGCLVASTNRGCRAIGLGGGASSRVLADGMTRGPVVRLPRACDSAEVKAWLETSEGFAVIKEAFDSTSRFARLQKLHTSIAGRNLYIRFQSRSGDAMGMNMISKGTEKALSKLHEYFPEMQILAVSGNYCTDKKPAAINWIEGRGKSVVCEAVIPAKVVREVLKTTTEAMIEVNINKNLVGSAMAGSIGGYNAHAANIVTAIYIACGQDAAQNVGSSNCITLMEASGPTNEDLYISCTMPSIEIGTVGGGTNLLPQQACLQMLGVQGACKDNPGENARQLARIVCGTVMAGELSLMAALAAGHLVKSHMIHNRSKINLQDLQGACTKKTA
Outline: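 HepG2 cells (passage P105–P110) treated 18 hours with compounds in 10-point three-fold dilutions from 3 μM. RIPA lysates (15 μg protein, BCA-quantified) run on SDS-PAGE and immunoblotted for HMGCR (1:500) with GAPDH (1:20000) as loading control, primary antibodies 16 hours at 4° C.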

Row | Compound | DC50 [µM]
1 | C[C@H]1C=C2C=C[C@H](C)[C@H](CC[C@@H]3C[C@@H](O)CC(=O)O3)[C@H]2[C@@H](OC(=O)NCCCCOCCCCNc2cccc3c2C(=O)N(C2CCC(=O)NC2=O)C3=O)C1 (stereo partly drawn) [Compound 89, (1S,3R,7S,8S,8aR)-8-(2-((2R,4R)-4-hydroxy-6-oxotetrahydro-2H-pyran-2-yl)ethyl)-3,7-dimethyl-1,2,3,7,8,8a-hexahydronaphthalen-1-yl (4-(4-((2-(2,6-dioxopiperidin-3-yl)-1,3-dioxoisoindolin-4-yl)amino)butoxy)butyl)carbamate] | < 0.05
2 | C[C@H]1C=C2C=C[C@H](C)[C@H](CC[C@@H]3C[C@@H](O[Si](C)(C)C(C)(C)C)CC(=O)O3)[C@H]2[C@@H](OC(=O)NCCOCCCOCCNc2cccc3c2C(=O)N(C2CCC(=O)NC2=O)C3=O)C1 (stereo partly drawn) [Compound 90, (1S,3R,7S,8S,8aR)-8-(2-((2R,4R)-4-((tert-butyldimethylsilyl)oxy)-6-oxotetrahydro-2H-pyran-2-yl)ethyl)-3,7-dimethyl-1,2,3,7,8,8a-hexahydronaphthalen-1-yl (2-(3-(2-((2-(2,6-dioxopiperidin-3-yl)-1,3-dioxoisoindolin-4-yl)amino)ethoxy)propoxy)ethyl)carbamate] | < 0.05
3 | C[C@H]1C=C2C=C[C@H](C)[C@H](CC[C@@H]3C[C@@H](O)CC(=O)O3)[C@H]2[C@@H](OC(=O)NCCOCCCOCCNc2cccc3c2C(=O)N(C2CCC(=O)NC2=O)C3=O)C1 (stereo partly drawn) [Compound 91, (1S,3R,7S,8S,8aR)-8-(2-((2R,4R)-4-hydroxy-6-oxotetrahydro-2H-pyran-2-yl)ethyl)-3,7-dimethyl-1,2,3,7,8,8a-hexahydronaphthalen-1-yl (2-(3-(2-((2-(2,6-dioxopiperidin-3-yl)-1,3-dioxoisoindolin-4-yl)amino)ethoxy)propoxy)ethyl)carbamate] | < 0.05
4 | C[C@H]1C=C2C=C[C@H](C)[C@H](CC[C@@H]3C[C@@H](O[Si](C)(C)C(C)(C)C)CC(=O)O3)[C@H]2[C@@H](OC(=O)NCCOCCOCCCNc2cccc3c2C(=O)N(C2CCC(=O)NC2=O)C3=O)C1 (stereo partly drawn) [Compound 92, (1S,3R,7S,8S,8aR)-8-(2-((2R,4R)-4-((tert-butyldimethylsilyl)oxy)-6-oxotetrahydro-2H-pyran-2-yl)ethyl)-3,7-dimethyl-1,2,3,7,8,8a-hexahydronaphthalen-1-yl (2-(2-(3-((2-(2,6-dioxopiperidin-3-yl)-1,3-dioxoisoindolin-4-yl)amino)propoxy)ethoxy)ethyl)carbamate] | < 0.05
5 | C[C@H]1C=C2C=C[C@H](C)[C@H](CC[C@@H]3C[C@@H](O)CC(=O)O3)[C@H]2[C@@H](OC(=O)NCCOCCOCCCNc2cccc3c2C(=O)N(C2CCC(=O)NC2=O)C3=O)C1 (stereo partly drawn) [Compound 93, (1S,3R,7S,8S,8aR)-8-(2-((2R,4R)-4-hydroxy-6-oxotetrahydro-2H-pyran-2-yl)ethyl)-3,7-dimethyl-1,2,3,7,8,8a-hexahydronaphthalen-1-yl (2-(2-(3-((2-(2,6-dioxopiperidin-3-yl)-1,3-dioxoisoindolin-4-yl)amino)propoxy)ethoxy)ethyl)carbamate] | < 0.05
6 | C[C@H]1C=C2C=C[C@H](C)[C@H](CC[C@@H]3C[C@@H](O[Si](C)(C)C(C)(C)C)CC(=O)O3)[C@H]2[C@@H](OC(=O)NCCCOCCCOCCCNc2cccc3c2C(=O)N(C2CCC(=O)NC2=O)C3=O)C1 (stereo partly drawn) [Compound 94, (1S,3R,7S,8S,8aR)-8-(2-((2R,4R)-4-((tert-butyldimethylsilyl)oxy)-6-oxotetrahydro-2H-pyran-2-yl)ethyl)-3,7-dimethyl-1,2,3,7,8,8a-hexahydronaphthalen-1-yl (3-(3-(3-((2-(2,6-dioxopiperidin-3-yl)-1,3-dioxoisoindolin-4-yl)amino)propoxy)propoxy)propyl)carbamate] | < 0.05
7 | C[C@H]1C=C2C=C[C@H](C)[C@H](CC[C@@H]3C[C@@H](O)CC(=O)O3)[C@H]2[C@@H](OC(=O)NCCCOCCCOCCCNc2cccc3c2C(=O)N(C2CCC(=O)NC2=O)C3=O)C1 (stereo partly drawn) [Compound 95, (1S,3R,7S,8S,8aR)-8-(2-((2R,4R)-4-hydroxy-6-oxotetrahydro-2H-pyran-2-yl)ethyl)-3,7-dimethyl-1,2,3,7,8,8a-hexahydronaphthalen-1-yl (3-(3-(3-((2-(2,6-dioxopiperidin-3-yl)-1,3-dioxoisoindolin-4-yl)amino)propoxy)propoxy)propyl)carbamate] | 0.05 to 0.5
8 | C[C@H]1C=C2C=C[C@H](C)[C@H](CC[C@@H]3C[C@@H](O[Si](C)(C)C(C)(C)C)CC(=O)O3)[C@H]2[C@@H](OC(=O)NCCCCCCCCNC(=O)COc2cccc3c2C(=O)N(C2CCC(=O)NC2=O)C3=O)C1 (stereo partly drawn) [Compound 96, (1S,3R,7S,8S,8aR)-8-(2-((2R,4R)-4-((tert-butyldimethylsilyl)oxy)-6-oxotetrahydro-2H-pyran-2-yl)ethyl)-3,7-dimethyl-1,2,3,7,8,8a-hexahydronaphthalen-1-yl (8-(2-((2-(2,6-dioxopiperidin-3-yl)-1,3-dioxoisoindolin-4-yl)oxy)acetamido)octyl)carbamate] | 0.05 to 0.5
9 | C[C@H]1C=C2C=C[C@H](C)[C@H](CC[C@@H]3C[C@@H](O)CC(=O)O3)[C@H]2[C@@H](OC(=O)NCCCCCCCCNC(=O)COc2cccc3c2C(=O)N(C2CCC(=O)NC2=O)C3=O)C1 (stereo partly drawn) [Compound 97, (1S,3R,7S,8S,8aR)-8-(2-((2R,4R)-4-hydroxy-6-oxotetrahydro-2H-pyran-2-yl)ethyl)-3,7-dimethyl-1,2,3,7,8,8a-hexahydronaphthalen-1-yl (8-(2-((2-(2,6-dioxopiperidin-3-yl)-1,3-dioxoisoindolin-4-yl)oxy)acetamido)octyl)carbamate] | 0.05 to 0.5
10 | C[C@H]1C=C2C=C[C@H](C)[C@H](CC[C@@H]3C[C@@H](O[Si](C)(C)C(C)(C)C)CC(=O)O3)[C@H]2[C@@H](OC(=O)NCCOCCOCCOCC(=O)Nc2cccc3c2C(=O)N(C2CCC(=O)NC2=O)C3=O)C1 (stereo partly drawn) [Compound 98, (1S,3R,7S,8S,8aR)-8-(2-((2R,4R)-4-((tert-butyldimethylsilyl)oxy)-6-oxotetrahydro-2H-pyran-2-yl)ethyl)-3,7-dimethyl-1,2,3,7,8,8a-hexahydronaphthalen-1-yl (2-(2-(2-(2-((2-(2,6-dioxopiperidin-3-yl)-1,3-dioxoisoindolin-4-yl)amino)-2-oxoethoxy)ethoxy)ethoxy)ethyl)carbamate] | < 0.05
11 | C[C@H]1C=C2C=C[C@H](C)[C@H](CC[C@@H]3C[C@@H](O)CC(=O)O3)[C@H]2[C@@H](OC(=O)NCCOCCOCCOCC(=O)Nc2cccc3c2C(=O)N(C2CCC(=O)NC2=O)C3=O)C1 (stereo partly drawn) [Compound 99, (1S,3R,7S,8S,8aR)-8-(2-((2R,4R)-4-hydroxy-6-oxotetrahydro-2H-pyran-2-yl)ethyl)-3,7-dimethyl-1,2,3,7,8,8a-hexahydronaphthalen-1-yl (2-(2-(2-(2-((2-(2,6-dioxopiperidin-3-yl)-1,3-dioxoisoindolin-4-yl)amino)-2-oxoethoxy)ethoxy)ethoxy)ethyl)carbamate] | < 0.05
12 | C[C@H]1C=C2C=C[C@H](C)[C@H](CC[C@@H]3C[C@@H](O[Si](C)(C)C(C)(C)C)CC(=O)O3)[C@H]2[C@@H](OC(=O)NCCC(=O)NCCOCCNc2cccc3c2C(=O)N(C2CCC(=O)NC2=O)C3=O)C1 (stereo partly drawn) [Compound 100, (1S,3R,7S,8S,8aR)-8-(2-((2R,4R)-4-((tert-butyldimethylsilyl)oxy)-6-oxotetrahydro-2H-pyran-2-yl)ethyl)-3,7-dimethyl-1,2,3,7,8,8a-hexahydronaphthalen-1-yl (3-((2-(2-((2-(2,6-dioxopiperidin-3-yl)-1,3-dioxoisoindolin-4-yl)amino)ethoxy)ethyl)amino)-3-oxopropyl)carbamate] | < 0.05
13 | C[C@H]1C=C2C=C[C@H](C)[C@H](CC[C@@H]3C[C@@H](O)CC(=O)O3)[C@H]2[C@@H](OC(=O)NCCC(=O)NCCOCCNc2cccc3c2C(=O)N(C2CCC(=O)NC2=O)C3=O)C1 (stereo partly drawn) [Compound 101, (1S,3R,7S,8S,8aR)-8-(2-((2R,4R)-4-hydroxy-6-oxotetrahydro-2H-pyran-2-yl)ethyl)-3,7-dimethyl-1,2,3,7,8,8a-hexahydronaphthalen-1-yl (3-((2-(2-((2-(2,6-dioxopiperidin-3-yl)-1,3-dioxoisoindolin-4-yl)amino)ethoxy)ethyl)amino)-3-oxopropyl)carbamate] | < 0.05
